Laboratory results from patent US5824785A, “Dyes for ink jet printing” (Ilford Imaging Switzerland GmbH, priority 1995, dated 1998).
≈ marks a conversion by molar mass, not a printed value.

Assay: solubility of the dyes in water
Format: physicochemical
Conditions: excess dye stirred 1 h at 50° C., cooled to 20° C., filtered, spectroscopic determination, read-out: Solubility (in g per 100 ml)
Protocol: The solubilities of the dyes according to the invention were determined as follows:
An excess of dye was heated at 50° C. in water with stirring for one hour. The mixture was then cooled down to 20° C. and filtered, and the dye content of the clear solution was determined spectroscopically.

Row | Structure (SMILES) | solubility [mg/mL]
1 | CN(CCO)c1nc(NCCS(=O)(=O)O)nc(Nc2ccc(N=Nc3c(N)ccc4cc(S(=O)(=O)O)cc(O)c34)c(S(=O)(=O)O)c2)n1 [compound 100] | 350 (≈ 490 mM)
2 | Nc1ccc2cc(S(=O)(=O)O)cc(O)c2c1N=Nc1ccc(Nc2nc(NCCS(=O)(=O)O)nc(N(CCO)CCO)n2)cc1S(=O)(=O)O [compound 101] | 320 (≈ 430 mM)
3 | Nc1ccc2cc(S(=O)(=O)O)cc(O)c2c1N=Nc1ccc(Nc2nc(NCCS(=O)(=O)O)nc(NCCS(=O)(=O)O)n2)cc1S(=O)(=O)O [compound 102] | 260 (≈ 340 mM)

The next lines start with the values.

Row | solubility [mg/mL] | Structure (SMILES)
4 | 200 (≈ 281 mM) | COc1cc(N=Nc2c(N)ccc3cc(S(=O)(=O)O)cc(O)c23)c(C)cc1Nc1nc(NCCO)nc(Nc2cccc(S(=O)(=O)O)c2)n1 [dye 1, reference compound]
5 | 150 (≈ 192 mM) | CCCCCCNc1nc(NCCCCCC)nc(Nc2cc(S(=O)(=O)O)cc3cc(S(=O)(=O)O)c(N=Nc4ccccc4S(=O)(=O)O)c(O)c23)n1 [dye 5, reference compound]
